Measured values reported in ChEMBL document CHEMBL1201862, “PubChem BioAssay data set” (2004).
The source made the active and inactive calls.

Assays:
Ion channel NompC = Ion channel NompC (Danio rerio, UniProt Q7T1G6); test: Fluorescence counterscreen assay for TRPML3 agonists: dose response cell-based high-throughput screening assay to identify agonists of the transient receptor potential channel N1 (TRPN1). [Related pubchem assays: 1526, 1424, 1448 ]; type: functional
Mucolipin-3 = Mucolipin-3 (Homo sapiens, UniProt Q8TDD5); test: Dose response cell-based high-throughput screening assay for agonists of the transient receptor potential channel ML3 (TRPML3). [Related pubchem assays: 1526, 1424, 1448 ]; type: functional
[1] = target: Mothers against decapentaplegic homolog 3 (Homo sapiens, UniProt P84022); test: inhibitors of SMAD-driven TGF-beta signaling – dose response (AID 715); type: functional
Cytochrome P450 2C19 = Cytochrome P450 2C19 (Homo sapiens, UniProt P33261); test: Cytochrome panel assay with activity outcomes. Panel member name: p450-cyp2c19 Compounds with AC50 equal or less than 10 uM are considered active; type: functional
Cytochrome P450 2D6 = Cytochrome P450 2D6 (Homo sapiens, UniProt P10635);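 further: CYP2D6 member of a cytochrome P450 panel assay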
[2] = NIH3T3 cell viability loss – ATP luminescence, mouse fibroblasts, counter-screen, dose response (AID 2010); type: functional, cell-based;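 further: cells exposed to compound for about 90 hours before reading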
[3] = Trypanosoma cruzi growth suppression in host cells – NIH3T3 host cells, beta-gal luminescence, confirmation (AID 2044); type: functional, cell-based;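 further: intracellular parasites grown in NIH/3T3 mouse fibroblasts as host cells; luminescent beta-galactosidase reporter signal from transgenic T. cruzi replicating inside host cells; inhibitors lower the luminescence signal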
[4] = viability loss in Vero cells – cytotoxicity control for Vif-APOBEC3G degradation inhibitor project, dose response (AID 1117358); type: functional; conditions: Vero
NADPH oxidase 1 = NADPH oxidase 1 (Homo sapiens, UniProt Q9Y5S8); type: functional, cell-based;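 further: Cell-based assay with luminescence read-out, IC50 derived from inhibitor dose-response curves; intracellular ROS from endogenous NOX1 in intact HT29 colon cancer cells; potency of inhibitors that lower the ROS luminescence signal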
[5] = viability of PTEN-deleted HCT116 cells – cell-based, HCT116 PTEN knockout, dose response (AID 1047); type: functional;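 further: HCT116 colon tumor cells with PTEN knocked out; cells exposed to compound for 60 hours before readout; potency for loss of cell viability measured by luminescence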
[6] = viability of HCT116 lacking mutant beta-catenin – cell-based, human colon tumor, dose response (AID 1045); type: functional;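 further: HCT116 colon tumor cells with beta catenin knocked out; cells exposed to compound for 60 hours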
Estrogen receptor = target: T1, Estrogen receptor (Homo sapiens, UniProt P03372); test: ERα coactivator recruitment enhancers – biochemical, TR-FRET, ERα LBD, dose response (AID 737)
T1 sequence (P03372 whole entry): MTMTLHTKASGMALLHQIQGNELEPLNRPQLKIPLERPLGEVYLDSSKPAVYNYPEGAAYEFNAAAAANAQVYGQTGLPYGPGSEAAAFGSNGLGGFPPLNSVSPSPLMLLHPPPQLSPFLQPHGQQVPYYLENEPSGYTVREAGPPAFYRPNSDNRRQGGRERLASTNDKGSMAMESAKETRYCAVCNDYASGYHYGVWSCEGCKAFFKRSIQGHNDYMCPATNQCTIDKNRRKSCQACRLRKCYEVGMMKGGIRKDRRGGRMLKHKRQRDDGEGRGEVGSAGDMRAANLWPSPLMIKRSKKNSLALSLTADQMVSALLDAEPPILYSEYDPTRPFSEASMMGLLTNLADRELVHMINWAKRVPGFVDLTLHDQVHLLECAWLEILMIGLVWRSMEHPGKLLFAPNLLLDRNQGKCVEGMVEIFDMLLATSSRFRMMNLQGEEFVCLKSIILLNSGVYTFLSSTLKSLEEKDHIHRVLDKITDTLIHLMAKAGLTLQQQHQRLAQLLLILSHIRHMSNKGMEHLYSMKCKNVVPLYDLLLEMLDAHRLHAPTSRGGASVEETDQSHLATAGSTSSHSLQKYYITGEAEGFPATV

[7] = target: Bifunctional protein GlmU (Mycobacterium tuberculosis, UniProt P9WMN3); test: Inhibitors of Mycobacterial Glucosamine-1-phosphate acetyl transferase (GlmU). Secondary screen.; set-up: species or system Mycobacterium tuberculosis H37Rv
Nonstructural protein 1 = Nonstructural protein 1 (Influenza A virus, UniProt Q194T2); type: functional, Influenza A virus (A/California/07/2009(H1N1))
Protein S100-A4 = Protein S100-A4 (Homo sapiens, UniProt P26447); test: human S100A4 peptide interaction inhibition curves – biochemical, fluorescence polarization, cherry-picked hits, dose response (AID 687001); type: functional
Large T antigen = Large T antigen (Simian virus 40, UniProt P03070); type: functional, Betapolyomavirus macacae;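 further: Confirmatory-stage PubChem screen for compounds that inhibit SV40 T antigen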
Cytochrome P450 3A4 = Cytochrome P450 3A4 (Homo sapiens, UniProt P08684);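 further: CYP3A4 tested as one member of a cytochrome P450 panel screen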
Vero = test: mammalian cell viability reduction – secondary assay, cytotoxicity control for West Nile virus antiviral project, dose response (AID 1650); type: functional; conditions: Chlorocebus sabaeus
[8] = microbe, parasite or virus in culture; type: functional; conditions: Mycobacterium tuberculosis
[9] = A High Throughput Confirmatory Assay used to Identify Novel Compounds that Inhibit Mycobacterium Tuberculosis in the absence of Glycerol.; type: functional
Leucine aminopeptidase = target: T2, Leucine aminopeptidase (Plasmodium falciparum 3D7, UniProt Q8IL11); test: P. falciparum M17LAP inhibitors, primary screen, biochemical, fluorogenic H-Leu-NHMec substrate, 1536-well (AID 1619); type: functional
T2 sequence (Q8IL11 whole entry): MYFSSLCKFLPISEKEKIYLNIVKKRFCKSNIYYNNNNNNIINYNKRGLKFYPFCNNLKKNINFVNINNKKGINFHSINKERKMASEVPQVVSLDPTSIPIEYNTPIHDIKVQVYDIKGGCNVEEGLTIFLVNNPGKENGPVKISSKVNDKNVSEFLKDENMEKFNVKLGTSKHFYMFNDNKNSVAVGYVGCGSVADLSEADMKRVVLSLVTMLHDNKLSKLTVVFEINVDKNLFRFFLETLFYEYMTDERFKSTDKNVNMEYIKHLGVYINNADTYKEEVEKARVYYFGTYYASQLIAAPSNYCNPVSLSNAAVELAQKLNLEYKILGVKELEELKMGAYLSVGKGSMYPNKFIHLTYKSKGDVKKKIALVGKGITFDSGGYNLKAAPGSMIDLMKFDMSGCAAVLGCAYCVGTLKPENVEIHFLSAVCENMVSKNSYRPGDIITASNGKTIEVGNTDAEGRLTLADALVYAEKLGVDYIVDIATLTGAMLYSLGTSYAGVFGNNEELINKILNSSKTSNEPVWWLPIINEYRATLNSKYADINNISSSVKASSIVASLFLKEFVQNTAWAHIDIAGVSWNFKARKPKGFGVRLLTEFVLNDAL

[10] = target: T3, Short transient receptor potential channel 4 (Mus musculus, UniProt Q9QUQ5); test: block of DAMGO-driven TRPC4 calcium entry – cell-based, HEK293 TRPC4/mu-opioid, Fluo-4 calcium, dose response (AID 434942); type: functional;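 further: potency of inhibitors blocking the TRPC4 calcium response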
T3 sequence (Q9QUQ5 whole entry): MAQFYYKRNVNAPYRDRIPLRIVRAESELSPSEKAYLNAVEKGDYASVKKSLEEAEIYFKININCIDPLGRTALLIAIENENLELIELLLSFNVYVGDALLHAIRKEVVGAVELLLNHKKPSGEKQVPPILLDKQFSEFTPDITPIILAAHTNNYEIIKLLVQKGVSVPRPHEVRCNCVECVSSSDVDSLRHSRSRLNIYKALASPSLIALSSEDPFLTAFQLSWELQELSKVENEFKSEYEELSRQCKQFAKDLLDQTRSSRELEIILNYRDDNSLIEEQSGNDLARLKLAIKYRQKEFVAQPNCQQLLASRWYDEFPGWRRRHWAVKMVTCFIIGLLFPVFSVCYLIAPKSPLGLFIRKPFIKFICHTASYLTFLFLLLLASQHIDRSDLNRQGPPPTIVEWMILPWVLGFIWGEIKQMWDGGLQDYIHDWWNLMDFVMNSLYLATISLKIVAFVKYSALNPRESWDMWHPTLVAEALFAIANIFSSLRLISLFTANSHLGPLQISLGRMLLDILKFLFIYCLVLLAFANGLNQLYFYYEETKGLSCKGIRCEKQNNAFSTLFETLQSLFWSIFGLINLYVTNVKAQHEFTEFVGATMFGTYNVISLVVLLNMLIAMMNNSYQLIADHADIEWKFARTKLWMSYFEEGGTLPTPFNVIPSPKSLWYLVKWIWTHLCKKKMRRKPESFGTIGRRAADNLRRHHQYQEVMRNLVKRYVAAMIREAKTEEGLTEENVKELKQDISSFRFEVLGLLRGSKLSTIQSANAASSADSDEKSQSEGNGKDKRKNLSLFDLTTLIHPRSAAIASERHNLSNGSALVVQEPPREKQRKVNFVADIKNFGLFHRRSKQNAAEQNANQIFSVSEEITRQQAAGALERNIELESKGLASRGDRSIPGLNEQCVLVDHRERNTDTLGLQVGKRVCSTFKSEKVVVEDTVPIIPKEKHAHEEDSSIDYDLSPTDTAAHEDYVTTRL

[11] = antiviral protection against BTV-induced cell death – arbovirus, BSR cells, confirmation (AID 1250); type: functional;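 further: protection from viral cytopathic effect measured as cell viability by ATP luminescence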
[12] = target: Ubiquitin carboxyl-terminal hydrolase BAP1 (Homo sapiens, UniProt Q92560); test: inhibition of BAP1 ubiquitin hydrolase activity – biochemical, dose response (AID 714); type: functional
Bcl-2-like protein 10 = target: T4, Bcl-2-like protein 10 (Homo sapiens, UniProt Q9HD36); test: Concentration-response of Bcl-B inhibitors by biochemical FP with TR3 (AID 1243); type: functional
T4 sequence (Q9HD36 whole entry): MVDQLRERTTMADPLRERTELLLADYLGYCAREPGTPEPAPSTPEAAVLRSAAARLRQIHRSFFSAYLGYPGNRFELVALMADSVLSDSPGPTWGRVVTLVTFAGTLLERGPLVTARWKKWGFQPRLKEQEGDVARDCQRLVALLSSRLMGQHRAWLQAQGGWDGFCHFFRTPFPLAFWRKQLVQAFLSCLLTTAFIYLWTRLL

Bcl-2-like protein 1 = Bcl-2-like protein 1 (Homo sapiens, UniProt Q07817); test: blockers of BCLXL peptide binding – biochemical, fluorescence polarization, 1536-well, selectivity assay for MCL1 inhibitor project, dose response (AID 2218)
[13] = target: Induced myeloid leukemia cell differentiation protein Mcl-1 (Homo sapiens, UniProt Q07820); test: blockers of MCL1 binding to BIM peptide – biochemical, fluorescence polarization, BIM-BH3 peptide, 1536-well, dose response (AID 2217)
HEK293 = test: Fluorescence-based counterscreen for potentiators or agonists of NPY-Y2: cell-based high-throughput dose response assay to identify inhibitors of cyclic nucleotide gated ion channel (CNGC) activity. In this assay, the parental HEK293 cell line transfected with a cyclic-nucleotide gated ion channel (CNGC)-based cAMP sensor is used to measure inhibition of isoproterenol-induced CNGC activity by test compound.; type: functional; conditions: Homo sapiens;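 further: stimulus is 1 µM isoproterenol at EC100 plus PDE inhibitor Ro 20-1724 at 25 µM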
[14] = target: Neuropeptide Y receptor type 2 (Homo sapiens, UniProt P49146); test: Fluorescence-based cell-based high-throughput dose response assay for agonists of NPY-Y2. [Related pubchem assays: 1703 (Screening assay (CNGC inhibitors).), 1359 (Screening assay (NPY-Y2 potentiators or agonists).), 1304 (Screening assay (NPY-Y1 potentiators or agonists).), 1710 (Screening assay (NPY-Y2 agonists).), 1791 (Summary AID.)]; type: functional
[15] = target: Neuropeptide Y receptor type 1 (Homo sapiens, UniProt P25929); test: Fluorescence-based counterscreen for agonists of NPY-Y2: cell-based high-throughput dose response assay for agonists of NPY-Y1.; type: functional
Sequence of Neuropeptide Y receptor type 1 (P25929 whole entry): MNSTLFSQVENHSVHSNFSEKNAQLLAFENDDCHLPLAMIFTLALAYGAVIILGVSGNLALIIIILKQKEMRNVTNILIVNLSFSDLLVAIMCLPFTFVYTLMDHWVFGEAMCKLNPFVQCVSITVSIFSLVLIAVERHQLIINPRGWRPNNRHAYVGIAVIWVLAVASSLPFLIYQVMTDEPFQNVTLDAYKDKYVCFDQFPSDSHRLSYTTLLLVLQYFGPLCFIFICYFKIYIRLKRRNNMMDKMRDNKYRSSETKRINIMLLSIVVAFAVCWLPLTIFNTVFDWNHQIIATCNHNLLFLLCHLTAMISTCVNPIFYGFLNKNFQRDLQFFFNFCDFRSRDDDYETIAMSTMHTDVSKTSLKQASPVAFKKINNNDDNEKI

Sequence of Cytochrome P450 2D6 (P10635 whole entry): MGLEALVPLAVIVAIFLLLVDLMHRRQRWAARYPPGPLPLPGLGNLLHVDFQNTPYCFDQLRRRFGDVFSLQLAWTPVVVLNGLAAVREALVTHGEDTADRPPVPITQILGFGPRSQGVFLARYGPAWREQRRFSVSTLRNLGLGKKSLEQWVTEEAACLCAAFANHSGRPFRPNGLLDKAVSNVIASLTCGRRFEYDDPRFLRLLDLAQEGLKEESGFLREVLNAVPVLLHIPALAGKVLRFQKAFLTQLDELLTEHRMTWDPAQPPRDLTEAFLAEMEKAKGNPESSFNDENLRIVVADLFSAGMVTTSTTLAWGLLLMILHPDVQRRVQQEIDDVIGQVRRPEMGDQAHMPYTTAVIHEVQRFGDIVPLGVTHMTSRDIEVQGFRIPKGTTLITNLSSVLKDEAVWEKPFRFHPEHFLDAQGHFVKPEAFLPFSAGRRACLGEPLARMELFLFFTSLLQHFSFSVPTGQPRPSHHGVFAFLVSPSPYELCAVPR
Sequence of Nonstructural protein 1 (Q194T2 whole entry): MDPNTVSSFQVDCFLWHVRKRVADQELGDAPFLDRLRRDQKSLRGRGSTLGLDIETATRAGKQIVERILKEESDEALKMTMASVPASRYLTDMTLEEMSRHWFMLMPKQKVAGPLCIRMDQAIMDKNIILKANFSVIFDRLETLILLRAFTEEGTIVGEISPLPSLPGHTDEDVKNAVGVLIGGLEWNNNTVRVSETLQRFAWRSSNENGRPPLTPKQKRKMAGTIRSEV
Sequence of Large T antigen (P03070 whole entry): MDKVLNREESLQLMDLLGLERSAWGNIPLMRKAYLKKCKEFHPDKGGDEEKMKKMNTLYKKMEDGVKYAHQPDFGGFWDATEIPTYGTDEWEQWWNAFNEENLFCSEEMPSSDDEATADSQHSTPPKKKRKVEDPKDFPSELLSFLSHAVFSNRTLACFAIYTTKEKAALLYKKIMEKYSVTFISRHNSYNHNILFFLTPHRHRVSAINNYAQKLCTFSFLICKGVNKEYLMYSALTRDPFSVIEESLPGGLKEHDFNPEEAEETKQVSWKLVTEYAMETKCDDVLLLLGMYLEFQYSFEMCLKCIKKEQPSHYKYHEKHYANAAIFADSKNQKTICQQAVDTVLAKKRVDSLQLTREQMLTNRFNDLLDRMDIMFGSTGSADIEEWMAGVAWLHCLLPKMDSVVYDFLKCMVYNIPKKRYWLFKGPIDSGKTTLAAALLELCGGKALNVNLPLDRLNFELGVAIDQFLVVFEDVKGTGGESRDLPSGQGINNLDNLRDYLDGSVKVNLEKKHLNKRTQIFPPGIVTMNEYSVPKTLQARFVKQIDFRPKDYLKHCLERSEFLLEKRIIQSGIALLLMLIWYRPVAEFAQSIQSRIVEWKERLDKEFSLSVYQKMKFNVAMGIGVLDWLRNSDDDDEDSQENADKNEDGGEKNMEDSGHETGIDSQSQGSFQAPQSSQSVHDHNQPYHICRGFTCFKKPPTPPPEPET
Sequence of NADPH oxidase 1 (Q9Y5S8 whole entry): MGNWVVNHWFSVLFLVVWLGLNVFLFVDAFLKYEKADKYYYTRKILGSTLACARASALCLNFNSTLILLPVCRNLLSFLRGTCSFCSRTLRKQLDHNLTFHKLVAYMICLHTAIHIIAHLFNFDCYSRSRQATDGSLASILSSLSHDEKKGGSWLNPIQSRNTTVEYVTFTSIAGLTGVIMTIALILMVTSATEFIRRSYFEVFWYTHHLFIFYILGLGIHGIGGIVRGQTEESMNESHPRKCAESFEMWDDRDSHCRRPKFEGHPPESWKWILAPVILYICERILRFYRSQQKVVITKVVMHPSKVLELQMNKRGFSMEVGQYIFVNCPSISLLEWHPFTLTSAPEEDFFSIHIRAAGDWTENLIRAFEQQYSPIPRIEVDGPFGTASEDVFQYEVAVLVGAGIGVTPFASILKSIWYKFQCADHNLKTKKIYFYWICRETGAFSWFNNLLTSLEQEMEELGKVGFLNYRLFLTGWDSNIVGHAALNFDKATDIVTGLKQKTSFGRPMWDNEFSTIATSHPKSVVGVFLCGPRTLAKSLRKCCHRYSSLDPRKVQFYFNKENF
Sequence of Induced myeloid leukemia cell differentiation protein Mcl-1 (Q07820 whole entry): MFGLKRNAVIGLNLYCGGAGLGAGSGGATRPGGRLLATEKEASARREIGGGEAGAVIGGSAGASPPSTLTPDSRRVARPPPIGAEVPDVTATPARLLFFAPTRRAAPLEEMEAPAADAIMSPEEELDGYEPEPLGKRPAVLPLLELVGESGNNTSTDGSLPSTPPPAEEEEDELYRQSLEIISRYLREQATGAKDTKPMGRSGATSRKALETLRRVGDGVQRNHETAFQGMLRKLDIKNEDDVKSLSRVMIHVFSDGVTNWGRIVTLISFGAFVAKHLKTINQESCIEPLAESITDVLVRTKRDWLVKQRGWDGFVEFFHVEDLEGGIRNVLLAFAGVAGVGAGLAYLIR
Sequence of Mothers against decapentaplegic homolog 3 (P84022 whole entry): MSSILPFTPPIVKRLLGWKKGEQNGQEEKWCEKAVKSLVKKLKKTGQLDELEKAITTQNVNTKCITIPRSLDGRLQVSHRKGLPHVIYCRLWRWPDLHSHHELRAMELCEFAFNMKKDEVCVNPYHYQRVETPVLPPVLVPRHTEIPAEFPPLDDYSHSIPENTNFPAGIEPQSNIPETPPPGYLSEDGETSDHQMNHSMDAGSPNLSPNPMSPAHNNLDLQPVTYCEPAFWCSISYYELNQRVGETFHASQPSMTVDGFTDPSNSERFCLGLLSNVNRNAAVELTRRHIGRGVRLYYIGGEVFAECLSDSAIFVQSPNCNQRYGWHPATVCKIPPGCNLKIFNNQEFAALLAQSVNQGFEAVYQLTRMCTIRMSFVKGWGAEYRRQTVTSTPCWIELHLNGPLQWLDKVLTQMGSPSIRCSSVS
Sequence of Cytochrome P450 3A4 (P08684 whole entry): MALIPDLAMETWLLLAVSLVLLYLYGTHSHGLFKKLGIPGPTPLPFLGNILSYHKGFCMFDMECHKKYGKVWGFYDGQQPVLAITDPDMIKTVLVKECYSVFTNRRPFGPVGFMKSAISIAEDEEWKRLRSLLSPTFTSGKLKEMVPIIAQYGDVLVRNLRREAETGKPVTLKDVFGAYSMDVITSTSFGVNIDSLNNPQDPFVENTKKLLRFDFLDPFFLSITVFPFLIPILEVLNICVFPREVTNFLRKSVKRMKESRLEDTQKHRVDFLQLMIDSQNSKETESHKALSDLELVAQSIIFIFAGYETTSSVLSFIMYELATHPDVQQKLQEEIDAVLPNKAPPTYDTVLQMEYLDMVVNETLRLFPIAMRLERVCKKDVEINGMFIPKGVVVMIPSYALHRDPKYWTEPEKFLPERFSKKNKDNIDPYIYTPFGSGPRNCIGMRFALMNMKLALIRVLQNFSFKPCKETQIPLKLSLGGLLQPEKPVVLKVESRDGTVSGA
Sequence of Cytochrome P450 2C19 (P33261 whole entry): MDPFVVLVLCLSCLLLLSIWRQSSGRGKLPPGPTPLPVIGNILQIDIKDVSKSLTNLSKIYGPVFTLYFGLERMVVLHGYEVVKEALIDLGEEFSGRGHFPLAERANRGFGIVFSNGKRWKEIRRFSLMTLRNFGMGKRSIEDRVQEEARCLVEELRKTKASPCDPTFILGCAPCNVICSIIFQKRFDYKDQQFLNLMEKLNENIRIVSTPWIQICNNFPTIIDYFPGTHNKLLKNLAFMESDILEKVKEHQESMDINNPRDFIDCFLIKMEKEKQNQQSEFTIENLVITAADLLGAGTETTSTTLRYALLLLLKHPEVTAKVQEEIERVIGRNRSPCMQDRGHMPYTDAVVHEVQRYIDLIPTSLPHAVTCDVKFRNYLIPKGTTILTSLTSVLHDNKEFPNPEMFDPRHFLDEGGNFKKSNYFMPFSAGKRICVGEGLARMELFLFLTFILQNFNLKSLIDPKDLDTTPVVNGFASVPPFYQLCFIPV
Sequence of Ubiquitin carboxyl-terminal hydrolase BAP1 (Q92560 whole entry): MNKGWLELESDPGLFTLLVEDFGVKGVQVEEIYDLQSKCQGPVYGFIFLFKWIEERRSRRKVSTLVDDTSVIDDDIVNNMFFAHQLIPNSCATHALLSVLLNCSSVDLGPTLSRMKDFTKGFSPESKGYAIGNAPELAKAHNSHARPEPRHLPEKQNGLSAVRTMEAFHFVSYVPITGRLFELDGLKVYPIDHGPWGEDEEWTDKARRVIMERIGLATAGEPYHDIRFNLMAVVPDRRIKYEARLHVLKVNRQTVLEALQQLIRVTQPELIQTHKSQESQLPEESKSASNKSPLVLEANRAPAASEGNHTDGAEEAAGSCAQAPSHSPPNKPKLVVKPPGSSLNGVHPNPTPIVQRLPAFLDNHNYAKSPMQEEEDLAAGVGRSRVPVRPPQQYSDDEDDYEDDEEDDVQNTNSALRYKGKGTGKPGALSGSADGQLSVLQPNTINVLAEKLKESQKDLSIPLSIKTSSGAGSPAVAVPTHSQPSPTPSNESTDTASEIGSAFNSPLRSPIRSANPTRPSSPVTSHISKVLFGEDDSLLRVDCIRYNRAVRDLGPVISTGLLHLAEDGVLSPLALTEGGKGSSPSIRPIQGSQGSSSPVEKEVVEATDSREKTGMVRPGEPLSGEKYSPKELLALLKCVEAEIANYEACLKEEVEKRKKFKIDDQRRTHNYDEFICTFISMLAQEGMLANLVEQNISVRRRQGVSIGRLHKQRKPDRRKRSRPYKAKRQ

SMILES: COc1ccc(Cl)cc1N(CC(=O)N1CCCCC1)S(C)(=O)=O
- EC50 (Ion channel NompC): > 29.9 µM (not active)
- EC50 (Mucolipin-3): 2.38 µM (active)

SMILES: O=C(NCCCN1CCCCCC1)C1CC(=O)N(CCc2ccccc2)C1 (configuration not stated)
- IC50 [1]: 10.2 µM (active)
- AC50 (Cytochrome P450 2C19): inconclusive
- AC50 (Cytochrome P450 2D6): 25.1 µM (inconclusive)

SMILES: CCCCn1c(NCc2ccccc2NS(=O)(=O)c2ccc(C)cc2)nc2ccccc21
- EC50 [2]: > 60 µM (not active)
- EC50 [3]: 2.21 µM (active)
- CC50 [4]: > 40 µM (active)

SMILES: O=C(Oc1cccc(F)c1)c1sc2ccccc2c1Cl
- IC50 (NADPH oxidase 1): > 17 µM (not active)

SMILES: Cc1ccc(-c2nnc(-c3ccc(NC(=O)c4ccco4)cc3)o2)cc1
- EC50 [5]: 28.4 µM (active)
- EC50 [6]: 46.1 µM (active)
- EC50 (Estrogen receptor): 10.4 µM (active)

SMILES: O=C1NC(=O)N(c2ccccc2F)C(=O)/C1=C/c1ccc(Sc2nc3ccccc3[nH]2)o1
- IC50 [7]: 219 µM (active)
- IC50 (Nonstructural protein 1): > 100 µM (active)
- AC50 (Protein S100-A4): 1.28 µM (active)
- IC50 (Large T antigen): 19.5 µM (active)

SMILES: COc1ccccc1C1CC(c2c(O)nc3ccc(Cl)cc3c2-c2ccccc2)=NN1S(C)(=O)=O (configuration not stated)
- AC50 (Cytochrome P450 3A4): 39.8 µM (inconclusive)
- CC50 (Vero): 16 µM (active)
- CC50 [8]: 25.2 µM (active)
- IC50 [9]: > 100 µM (active)
- AC50 (Cytochrome P450 2D6): 7.08 µM (inconclusive)

SMILES: Cc1ccc(-c2csc(NC(=O)C3CC=CCC3C(=O)O)c2C(=O)OC(C)C)cc1 (configuration not stated)
- IC50 (Leucine aminopeptidase): 9.13 µM (active)
- EC50 [10]: 5.96 µM (active)
- IC50 [11]: 39.4 µM (active)

SMILES: COc1cccc(NC(=O)c2ccccc2-c2nc(-c3ccc(Cl)cc3)no2)c1
- IC50 [12]: 9 µM (active)

SMILES: CN1CCN(CN2C(=O)/C(=N\NC(=O)CSc3nc4ccccc4s3)c3ccccc32)CC1
- EC50 (Bcl-2-like protein 10): 12.9 µM (active)

SMILES: COc1cccc(/C=N/NC(=S)Nc2cccc(C(=O)O)c2)c1O
- IC50 (Bcl-2-like protein 1): > 109 µM (not active)
- IC50 (Nonstructural protein 1): 4.94 µM (active)
- IC50 [13]: > 109 µM (not active)

SMILES: Fc1ccc2c(c1)/C(=N/Nc1ccccn1)CCS2
- EC50 (HEK293): 7.7 µM (active)
- EC50 [14]: 11.3 µM (not active)
- EC50 [15]: 12.4 µM (not active)
